Literature values in article PMC9952391, “The Role of Acetyl Zingerone and Its Derivatives in Inhibiting UV-Induced, Incident, and Delayed Cyclobutane Pyrimidine Dimers” (Antioxidants, 2023).

Experiments:
MMP-12 = tested on: MMP-12; design: method as in PMID 31465741; settings: in vitro assays; cited from earlier work
MMP-1 = tested on: MMP-1; design: method as in PMID 31465741; settings: in vitro assays; cited from earlier work

COc1cc(CC(C(C)=O)C(C)=O)ccc1O [AZ, 3-(4-Hydroxy-3-methoxybenzyl)-pentane-2,4-dione]
Inhibition of MMP-12 activity (MMP-12): inhibited
Inhibition of MMP-1 activity (MMP-1): inhibited
